Test results published in publication PMC12263876, “DDX39B K63-linked ubiquitination mediated by TRIM28 promotes NSCLC metastasis by enhancing ECAD lysosomal degradation” (Signal Transduction and Targeted Therapy, 2025).

Target: T1, DDX39B (Homo sapiens, UniProt Q13838)
T1 construct: His-DDX39B
Test: SPR (KD […]); also BLI with biotinylated His-DDX39B (KD […]) and CETSA in NSCLC cells
Format: binding

T1 sequence (Q13838 2-428): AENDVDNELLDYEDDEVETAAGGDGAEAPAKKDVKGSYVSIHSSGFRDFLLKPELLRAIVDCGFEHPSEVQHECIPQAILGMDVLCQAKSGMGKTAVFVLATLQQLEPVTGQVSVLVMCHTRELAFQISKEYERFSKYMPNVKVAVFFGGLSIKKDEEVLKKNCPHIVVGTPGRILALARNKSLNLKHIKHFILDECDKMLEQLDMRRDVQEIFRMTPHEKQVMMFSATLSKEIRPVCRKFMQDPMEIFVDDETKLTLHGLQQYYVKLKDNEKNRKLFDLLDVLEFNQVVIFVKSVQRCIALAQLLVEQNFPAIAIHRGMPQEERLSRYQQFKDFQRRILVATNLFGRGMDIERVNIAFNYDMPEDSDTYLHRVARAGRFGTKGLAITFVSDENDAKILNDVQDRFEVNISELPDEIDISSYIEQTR

**Q.** `C[C@H]1[C@H](OC(=O)CCC(=O)O)O[C@@H]2O[C@@]3(C)CC[C@H]4[C@H](C)CC[C@@H]1[C@@]24OO3` [artesunate] was tested. Which Kd did it give?
**A.** 3.23 µM
